Test results taken from patent publication US20240149298A1, “PREPARATION OF HYDROPHOBIC SURFACES” (Technion Research & Development Foundation Limited, priority 2021, published 2024).

Columns and labels:
[1] = Roughness (RMS) of spray-deposited fatty acid layer, dynamic confocal microscope; type: physicochemical; settings: sprayed on stainless steel, room temperature
Method: Roughness and coating thickness were measured using a dynamic confocal microscope (Leica DCM3D); data processing was performed using SensoMap Turbo software. The coating thickness was calculated as the difference in height between the lower and upper levels of a confocal profile measured after a scratch implementation on the coating using a 25G needle. Spray coating was performed by spraying a selected organic solution of a selected fatty acid or a selected mixture of fatty acids on a desired surface using commercially available spraying gun. Gun adjustment is required to obtain the optimal coating properties. Exemplary adjustment parameters included distance from the treated surface, which was optimal at around 30 cm, and pulse duration, which was optimal at 1-5 seconds (e.g., 1-2 seconds). Other parameters are described hereinabove. Exemplary solutions were sprayed onto a surface of stainless steel, at room temperature. Roughness (RMS) and wettability measurements were performed as described hereinabove.

[2] = Wetting properties: water contact angle (CA) of fatty acid coatings; type: physicochemical; settings: for Contact angle [°] (about 5% RSD): sprayed on stainless steel, room temperature
Method: Wetting properties of the coatings were characterized by CA and CAH measurements, which were performed using an Attension Theta Lite tensiometer and high-purity water or ethylene glycol (99.5%, Merck, Germany) droplets of 7 μL volume. Spray coating was performed by spraying a selected organic solution of a selected fatty acid or a selected mixture of fatty acids on a desired surface using commercially available spraying gun. Gun adjustment is required to obtain the optimal coating properties. Exemplary adjustment parameters included distance from the treated surface, which was optimal at around 30 cm, and pulse duration, which was optimal at 1-5 seconds (e.g., 1-2 seconds). Other parameters are described hereinabove. […] Roughness (RMS) and wettability measurements were performed as described hereinabove.

Botrytis cinerea = assay: Anti-fungal effect of neat fatty acids on PDA agar plates; type: cell-based; settings: neat fatty acid at centre of PDA plate, 24° C., 72 hours
Method: Anti-fungal studies: Botrytis cinerea (B. cinerea) isolate B05.10 was collected from Vitis vinifera. Botrytis cinerea spores were plated on potato dextrose agar (PDA) plates, each fatty acid powder was placed in the center of the plate, and the plates were then incubated at 24° C. for 72 hours. In the case of caprylic acid, a hole was punched in the middle of the agar plate in order to contain its liquid form.

E. coli = assay: Antimicrobial properties of fatty acid powders in liquid medium, drop-plate method; type: cell-based, Escherichia coli; settings: 50 milligram SFA powder per 1 mL suspension, 24 hours at 37° C.; control 1.2 ± 0.2 · 10^8
Method: (§1) Antimicrobial studies: The antimicrobial properties of fatty acid powders were evaluated by in liquid medium via the drop-plate method. One bacteria colony (E. coli or L. innocua) was incubated overnight in 4 mL Nutrient Broth (NB) liquid medium (Sigma Aldrich, Israel) at 37° C. under agitation (150 rpm) until the bacteria reached a stationary phase (about 10^9 CFU/mL). Then, the overnight bacteria culture was diluted in fresh NB medium (about 10^7 CFU/mL) and incubated for an additional 2 hours to achieve a logarithmic culture. Next, the logarithmic culture was diluted to 10^4 CFU mL^−1 in 1:100 NB medium.
(§2) 1 mL of the diluted bacterial suspension was incubated with 50 milligram of different SFA powders at 37° C. for 24 hours in 24-well-plates under agitation (100 rpm). The cultures were decimally diluted and 10 μL drops were transferred onto NB solid agar substrate. The colonies were counted after 24 hours incubation at 37° C.
(§3) To study the intrinsic bactericidal effect of the tested SFAs against both Gram-positive and Gram-negative bacteria, incubation of bacteria culture with powdered SFAs followed by colony counting was performed. Table 3 hereinbelow presents E. coli and L. innocua count in colony-forming unit (CFU) per milliliter, estimated by the drop-plate method following incubation for 24 hours at 37° C. with the SFA powders in respective liquid media.

L. innocua = assay: as above; type: cell-based, Listeria innocua; settings: 24 hours at 37° C.
Method: as §1, §2, §3

SMILES: CCCCCCCCCCCCCCCCCCCCCC(=O)O [Behenic acid]
- Roughness [μm] (about 10% RSD) ([1]; Diethyl ether, 2 mg/ml): 4.2 μm
- Contact angle [°] (about 5% RSD) ([2]; Diethyl ether, 2 mg/ml): 156 °
- anti-fungal effect against Botrytis cinerea growth (Botrytis cinerea): do not present any anti-fungal effect

SMILES: CCCCCCCCCCCCCCCCCCCC(=O)O [Arachidic acid]
- Roughness [μm] (about 10% RSD) ([1]; Acetone, 2 mg/ml): 2.7 μm
- Roughness [μm] (about 10% RSD) ([1]; Diethyl ether, 10 mg/ml): 4.3 μm
- Roughness [μm] (about 10% RSD) ([1]; EtOH, 1 mg/ml): 0.9 μm
- Contact angle [°] (about 5% RSD) ([2]; Acetone, 2 mg/ml): 134 °
- Contact angle [°] (about 5% RSD) ([2]; Diethyl ether, 10 mg/ml): 152 °
- Contact angle [°] (about 5% RSD) ([2]; EtOH, 1 mg/ml): 119 °
- E. coli [CFU mL^−1] (E. coli): 9.6 ± 3.2 · 10^7 CFU mL^−1
- L. innocua [CFU mL^−1] (L. innocua; 50 milligram SFA powder per 1 mL suspension, control 2.4 ± 0.2 · 10^5): 0 CFU mL^−1
- L. innocua growth inhibition (L. innocua; powdered SFA): completely inhibited

SMILES: C/C=C/C=C/C(=O)O [sorbic acid]
- properties of sprayed coating as single component ([2]; preliminary tests, data not shown): hydrophilic coating which was not stable over time
- anti-fungal effect against Botrytis cinerea growth (Botrytis cinerea): significant growth inhibition

SMILES: CCCCCCCC(=O)O [caprylic acid, Caprylic acid]
- anti-fungal effect against Botrytis cinerea growth (Botrytis cinerea): complete inhibition
